# Laboratory results as given in PMC4126480, “Evaluation of drug interaction potential of Labisia pumila (Kacip Fatimah) and its constituents” (Frontiers in Pharmacology, 2014).
# How the values were obtained:
# PXR = biological target: T1, PXR (Homo sapiens, UniProt O75469); assay: Inhibition of rifampicin-induced PXR activity, reporter gene assay in HepG2 cells; assay type: cell-based; conditions: extract 3–30 μg/mL, saponins 3–30 μM
# T1 construct: expressed in transfected cells; host or cells: HepG2 cells, transient electroporation with pSG5-PXR and the CYP3A4-PXRE-LUC reporter
# T1 sequence (O75469 1-434): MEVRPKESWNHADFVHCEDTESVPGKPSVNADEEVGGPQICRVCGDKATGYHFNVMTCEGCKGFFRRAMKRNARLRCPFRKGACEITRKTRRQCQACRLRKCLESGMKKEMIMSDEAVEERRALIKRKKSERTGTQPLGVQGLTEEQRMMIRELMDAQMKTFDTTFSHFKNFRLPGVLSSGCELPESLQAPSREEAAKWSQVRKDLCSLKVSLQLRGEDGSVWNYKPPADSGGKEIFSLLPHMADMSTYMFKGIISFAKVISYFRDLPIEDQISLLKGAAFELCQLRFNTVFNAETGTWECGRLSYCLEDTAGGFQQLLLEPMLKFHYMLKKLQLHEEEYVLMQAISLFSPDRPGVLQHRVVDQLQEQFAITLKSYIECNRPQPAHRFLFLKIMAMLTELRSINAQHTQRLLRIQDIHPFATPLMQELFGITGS
# Excerpt: The pSG5-hPXR expression vector was provided generously by Dr. Steven Kliewer (University of Texas Southwestern Medical Center, Dallas, TX, USA; [Lehmann et al., 1998]) and the reporter plasmid CYP3A4-PXR response element (PXRE)-LUC (containing the proximal 0/–362 and distal 7208/7797 PXRE regions fused upstream of luciferase; [Goodwin et al., 1999]) was a kind gift from Dr. Christopher Liddle (University of Sydney, Westmead, NSW, Australia). The modulation of PXR activity by test samples was determined in HepG2 cells transiently transfected with pSG5-PXR (25 μg) and PCR5 plasmid DNA (25 μg) by electroporation at 180 V, 1 pulse for 70 msec. The cells were plated in 96-well plates at a density of 50,000 cells per well. […] After additional 24 hour incubation, the media was aspirated and 40 μL of luciferase reagent (Promega Corporation, Madison, WI, USA) was added to each well and luminescence was measured on Spectramax M5 plate reader (Molecular Devices, Sunnyvale, CA, USA). The fold induction in luciferase activity in the treated cells was calculated in comparison to vehicle treated cells. The cytotoxicity of test samples toward HepG2 cells was also determined by measuring the cell viability using the CellTiter 96 AQueous One Solution Cell Proliferation Assay (MTS) as described earlier ([Manda et al., 2013]).
# [1] = Estimation of concentration per dose, GIT and plasma concentrations (560 mg KF extract dose); design: species or system human; conditions: for Estimated concentration per dose: 560 mg KF extract, single dose, from % yield; for Estimated GIT concentration / Estimated Plasma concentration: 560 mg dose; for Estimated GIT concentration: human GIT volume 250 mL; for Estimated Plasma concentration: Table 2, plasma volume 3 L, 100% bioavailable assumed
# Description: All assumptions to predict the HDI potential of KF methanolic extract and its constituents were according to previously published report ([Awortwe et al., 2014]). The % yield was calculated from the amounts extracted from the KF roots ([Ali and Khan, 2011]). The human GIT volume is 250 mL and plasma volume is about 3 L. The commonly used maximum dose of KF extract capsules is 560 mg per day ([Abdul Kadir et al., 2012]) and accordingly we estimated the concentration per dose, GIT, and plasma concentrations of extract and its constituents. We then compared the in vitro IC50 values obtained from recombinant CYPs with estimated GIT and plasma concentrations. If the IC50 values were lower than the GIT or plasma concentration, then the test compound or extract is likely to cause HDI in vivo.
# P-gp [2] = biological target: T2, P-gp (Homo sapiens, UniProt P08183); assay: P-gp inhibition by 3H-digoxin basolateral to apical transport in hMDR1-MDCK-II cells
# Description: The cells were seeded at a density of 120,000 cells/well in 12-well Transwell plates and cultured for 3 days. […] Cells were washed with warm HBSS buffer supplemented with 10 mM HEPES (pH 7.4) and pre-incubated with 0.5 mL of buffer containing test samples (six concentrations) on the apical side and 1.5 mL of buffer on the basolateral side for 30 min (37 °C, 5% CO2, and 95% relative humidity). […] Aliquots of 25 μL were taken out from the apical side, mixed with 100 μL of scintillant (Microscint TM-40, PerkinElmer) and radioactive counts were measured on a TopCount microplate scintillation counter (PerkinElmer, Waltham, MA, USA) in CPM mode.
# The inhibition of the basolateral to apical (B-A) transport of digoxin by test samples was calculated compared to the vehicle control.
# P-gp [3] = biological target: T2, P-gp; assay: P-gp inhibition by calcein-AM uptake in hMDR1-MDCK-II cells
# Description: Cells were seeded in 96-well plates at 70,000 cells/well in 200 μL of culture medium. The medium was changed at 24 h after seeding and the assay was performed 48 h later.
# [4] = system: hMDR1-MDCK-II cell monolayers; assay: Monolayer integrity: permeability of Lucifer yellow; assay type: in vitro ADME, canine; conditions: paracellular marker
# Description: The cells were seeded at a density of 120,000 cells/well in 12-well Transwell plates and cultured for 3 days. TEER values were in the range of 500–800 Ω cm^2. Cells were washed with warm HBSS buffer supplemented with 10 mM HEPES (pH 7.4) and pre-incubated with 0.5 mL of buffer containing test samples (six concentrations) on the apical side and 1.5 mL of buffer on the basolateral side for 30 min (37 °C, 5% CO2, and 95% relative humidity).
# T2 sequence (P08183 whole entry): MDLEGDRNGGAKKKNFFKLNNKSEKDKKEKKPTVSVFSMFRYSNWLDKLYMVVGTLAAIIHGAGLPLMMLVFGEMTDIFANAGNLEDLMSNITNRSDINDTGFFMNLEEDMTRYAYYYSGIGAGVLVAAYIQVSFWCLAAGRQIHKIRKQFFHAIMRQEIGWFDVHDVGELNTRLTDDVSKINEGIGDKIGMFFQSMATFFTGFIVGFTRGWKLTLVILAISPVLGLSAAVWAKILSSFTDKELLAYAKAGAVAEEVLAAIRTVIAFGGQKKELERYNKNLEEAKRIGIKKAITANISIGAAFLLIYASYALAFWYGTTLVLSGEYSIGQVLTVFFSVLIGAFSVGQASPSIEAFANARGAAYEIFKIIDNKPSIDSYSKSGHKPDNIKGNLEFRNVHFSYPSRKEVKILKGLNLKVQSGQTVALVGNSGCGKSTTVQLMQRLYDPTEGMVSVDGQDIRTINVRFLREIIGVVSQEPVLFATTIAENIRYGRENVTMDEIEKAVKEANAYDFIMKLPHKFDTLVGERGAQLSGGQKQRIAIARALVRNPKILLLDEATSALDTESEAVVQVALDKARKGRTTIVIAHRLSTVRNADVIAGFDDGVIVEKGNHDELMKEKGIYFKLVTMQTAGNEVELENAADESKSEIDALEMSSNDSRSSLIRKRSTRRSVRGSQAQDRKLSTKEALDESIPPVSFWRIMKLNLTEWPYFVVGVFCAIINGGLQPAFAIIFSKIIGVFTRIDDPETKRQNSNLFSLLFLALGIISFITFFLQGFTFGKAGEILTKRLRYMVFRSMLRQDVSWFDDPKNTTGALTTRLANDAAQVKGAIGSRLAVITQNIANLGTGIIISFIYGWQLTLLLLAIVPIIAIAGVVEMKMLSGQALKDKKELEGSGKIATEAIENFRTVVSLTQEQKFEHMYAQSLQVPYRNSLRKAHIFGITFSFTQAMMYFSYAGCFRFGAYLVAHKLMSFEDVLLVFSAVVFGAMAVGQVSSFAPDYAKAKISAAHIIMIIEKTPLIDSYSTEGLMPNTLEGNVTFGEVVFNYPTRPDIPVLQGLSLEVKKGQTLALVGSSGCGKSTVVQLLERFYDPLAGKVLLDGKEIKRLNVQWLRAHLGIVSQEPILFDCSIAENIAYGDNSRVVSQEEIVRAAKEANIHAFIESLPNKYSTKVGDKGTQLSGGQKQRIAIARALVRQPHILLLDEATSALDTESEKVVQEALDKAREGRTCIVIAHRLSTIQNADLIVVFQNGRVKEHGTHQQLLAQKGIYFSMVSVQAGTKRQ
Molecule,Effect on rifampicin-induced PXR activity (PXR),Estimated concentration per dose [1],Estimated GIT concentration [1],Estimated Plasma concentration [1],IC50 (P-gp [2]),EC50 (P-gp [3]),Papp value [4]
C[C@@H]1O[C@@H](O[C@H]2[C@H](O[C@H]3CO[C@@H](O[C@H]4CC[C@]5(C)[C@H]6CC[C@]78OC[C@@]9(CC[C@](C)(C=O)C[C@H]97)C(=O)C[C@@]8(C)[C@]6(C)CC[C@H]5C4(C)C)[C@H](O)[C@H]3O)O[C@H](CO)[C@@H](O)[C@@H]2O)[C@H](O)[C@H](O)[C@H]1O [Ardisimamilloside H],dose dependently decreased,0.011 mg/mL,0.047 µg/mL,0.003 µg/mL,4.2 ± 1.1 µM,42 ± 3.5 µM,–
CC1(C)[C@@H](O[C@@H]2OC[C@H](O[C@@H]3O[C@H](CO)[C@@H](O)[C@H](O)[C@H]3O[C@@H]3OC[C@@H](O)[C@H](O)[C@H]3O)[C@H](O)[C@H]2O)CC[C@]2(C)[C@H]3CC[C@]45OC[C@@]6(CC[C@](C)(C=O)C[C@H]64)[C@H](O)C[C@@]5(C)[C@]3(C)CC[C@@H]12 [Primulanin],dose dependently decreased,0.07 mg/mL,0.31 µg/mL,0.026 µg/mL,6.4 ± 2.3 µM,34 ± 2.3 µM,–
Lucifer yellow [LY],–,–,–,–,–,–,1.1 ± 0.8 × 10^-6 cm/s
